Assay results as given in PubChem BioAssay (NCI).
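In this assay, cells in 96-well plates receive the compound at five concentrations for 48 hours. Endpoints are linearly interpolated between the surrounding concentrations. GI50: concentration for 50% inhibition of growth. TGI is the concentration that stops growth completely.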

Assays:
Assay in all cases: inhibition of tumour cell growth, NCI panel, 48 h
[1] = tested on: HS 578T breast
[2] = tested on: SR leukemia
[3] = tested on: SK-MEL-5 melanoma
[4] = tested on: RXF 393 renal
[5] = tested on: EKVX NSCLC
[6] = tested on: IGROV1 ovarian
[7] = tested on: MDA-MB-231 breast
[8] = tested on: HT29 colon
[9] = tested on: NCI-H23 lung
[10] = tested on: LOX IMVI melanoma
[11] = tested on: SN12C renal
[12] = tested on: SNB-19 CNS
[13] = tested on: SK-MEL-2 melanoma
[14] = tested on: NCI-H460 lung
[15] = tested on: NCI-H522 lung
[16] = tested on: M14 melanoma
[17] = tested on: K-562 leukemia
[18] = tested on: UACC-62 melanoma
[19] = tested on: PC-3 prostate
[20] = tested on: 786-0 renal
[21] = tested on: SF-295 CNS
[22] = tested on: MDA-MB-435
[23] = tested on: DU-145 prostate
[24] = tested on: A498 renal
[25] = tested on: MCF7 breast
[26] = tested on: OVCAR-3 ovarian
[27] = tested on: A549 NSCLC
[28] = tested on: HCT-116 colon
[29] = tested on: HCT-15 colon
[30] = tested on: CAKI-1 renal
[31] = tested on: UACC-257 melanoma
[32] = tested on: COLO 205 colon
[33] = tested on: SW-620 colon
[34] = tested on: CCRF-CEM leukemia
[35] = tested on: HOP-62 NSCLC
[36] = tested on: NCI-H226 lung
[37] = tested on: SK-OV-3 ovarian
[38] = tested on: OVCAR-4 ovarian
[39] = tested on: HCC-2998 colon
[40] = tested on: RPMI-8226 leukemia
[41] = tested on: SF-539 CNS
[42] = tested on: BT-549 breast
[43] = tested on: MALME-3M melanoma
[44] = tested on: SF-268 CNS
[45] = tested on: KM12 colon
[46] = tested on: SNB-75 CNS
[47] = tested on: SK-MEL-28 melanoma
[48] = tested on: ACHN renal
[49] = tested on: UO-31 renal
[50] = tested on: NCI/ADR-RES ovarian
[51] = tested on: U251 CNS
[52] = tested on: OVCAR-8 ovarian
[53] = tested on: MOLT-4 leukemia
[54] = tested on: TK-10 renal
[55] = tested on: OVCAR-5 ovarian
[56] = tested on: HL-60(TB) leukemia

Question: With O=C1c2ccccc2C(=O)c2c1c(=O)c(=O)c1ccccc1c(=O)n2Cc1ccccc1 as the compound, how does the GI50 [1] read?
Answer: Its GI50 is greater than 100 µM.

Question: What about the TGI [1] of the same compound?
Answer: Its TGI is greater than 100 µM.

Question: And the GI50 [2]?
Answer: Its GI50 is 29 µM.

Question: What about the TGI [2] of the same compound?
Answer: Its TGI is greater than 100 µM.

Question: What about the GI50 [3] of the same compound?
Answer: The GI50 was 15.8 µM.

Question: What about the TGI [3] of the same compound?
Answer: Its TGI is 47.2 µM.

Question: And the GI50 [4]?
Answer: The GI50 was greater than 100 µM.

Question: What about the TGI [4] of the same compound?
Answer: The TGI was greater than 100 µM.

Question: What about the GI50 [5] of the same compound?
Answer: Its GI50 is greater than 100 µM.

Question: What about the TGI [5] of the same compound?
Answer: Its TGI is greater than 100 µM.

Question: And the GI50 [6]?
Answer: The GI50 was 79.2 µM.

Question: And the TGI [6]?
Answer: Its TGI is greater than 100 µM.

Question: And the GI50 [7]?
Answer: The GI50 was greater than 100 µM.

Question: And the TGI [7]?
Answer: The TGI was greater than 100 µM.

Question: What about the GI50 [8] of the same compound?
Answer: Its GI50 is greater than 100 µM.

Question: And the TGI [8]?
Answer: Its TGI is greater than 100 µM.

Question: What about the GI50 [9] of the same compound?
Answer: The GI50 was 8.51 µM.

Question: What about the TGI [9] of the same compound?
Answer: Its TGI is greater than 100 µM.

Question: What about the GI50 [10] of the same compound?
Answer: Its GI50 is 92.9 µM.

Question: And the TGI [10]?
Answer: Its TGI is greater than 100 µM.

Question: And the GI50 [11]?
Answer: Its GI50 is greater than 100 µM.

Question: What about the TGI [11] of the same compound?
Answer: Its TGI is greater than 100 µM.

Question: What about the GI50 [12] of the same compound?
Answer: Its GI50 is greater than 100 µM.

Question: And the TGI [12]?
Answer: Its TGI is greater than 100 µM.

Question: What about the GI50 [13] of the same compound?
Answer: The GI50 was greater than 100 µM.

Question: What about the TGI [13] of the same compound?
Answer: Its TGI is greater than 100 µM.

Question: And the GI50 [14]?
Answer: Its GI50 is 50.7 µM.

Question: And the TGI [14]?
Answer: Its TGI is greater than 100 µM.

Question: What about the GI50 [15] of the same compound?
Answer: Its GI50 is greater than 100 µM.

Question: And the TGI [15]?
Answer: The TGI was greater than 100 µM.

Question: What about the GI50 [16] of the same compound?
Answer: Its GI50 is 36.6 µM.

Question: And the TGI [16]?
Answer: Its TGI is greater than 100 µM.

Question: What about the GI50 [17] of the same compound?
Answer: Its GI50 is 53.7 µM.

Question: And the TGI [17]?
Answer: Its TGI is greater than 100 µM.

Question: What about the GI50 [18] of the same compound?
Answer: The GI50 was 66.3 µM.

Question: What about the TGI [18] of the same compound?
Answer: Its TGI is greater than 100 µM.

Question: And the GI50 [19]?
Answer: The GI50 was greater than 100 µM.

Question: And the TGI [19]?
Answer: The TGI was greater than 100 µM.

Question: And the GI50 [20]?
Answer: Its GI50 is greater than 100 µM.

Question: What about the TGI [20] of the same compound?
Answer: The TGI was greater than 100 µM.

Question: What about the GI50 [21] of the same compound?
Answer: Its GI50 is 53.1 µM.

Question: And the TGI [21]?
Answer: Its TGI is greater than 100 µM.

Question: And the GI50 [22]?
Answer: The GI50 was greater than 100 µM.

Question: And the TGI [22]?
Answer: The TGI was greater than 100 µM.

Question: And the GI50 [23]?
Answer: Its GI50 is 47.9 µM.

Question: What about the TGI [23] of the same compound?
Answer: The TGI was greater than 100 µM.

Question: And the GI50 [24]?
Answer: Its GI50 is greater than 100 µM.

Question: And the TGI [24]?
Answer: Its TGI is greater than 100 µM.

Question: And the GI50 [25]?
Answer: Its GI50 is 79.1 µM.

Question: What about the TGI [25] of the same compound?
Answer: The TGI was greater than 100 µM.

Question: What about the GI50 [26] of the same compound?
Answer: Its GI50 is 88.8 µM.

Question: What about the TGI [26] of the same compound?
Answer: Its TGI is greater than 100 µM.

Question: And the GI50 [27]?
Answer: The GI50 was 47.2 µM.

Question: What about the TGI [27] of the same compound?
Answer: The TGI was greater than 100 µM.

Question: What about the GI50 [28] of the same compound?
Answer: Its GI50 is greater than 100 µM.

Question: And the TGI [28]?
Answer: The TGI was greater than 100 µM.

Question: What about the GI50 [29] of the same compound?
Answer: Its GI50 is greater than 100 µM.

Question: And the TGI [29]?
Answer: Its TGI is greater than 100 µM.

Question: What about the GI50 [30] of the same compound?
Answer: The GI50 was greater than 100 µM.

Question: And the TGI [30]?
Answer: The TGI was greater than 100 µM.

Question: What about the GI50 [31] of the same compound?
Answer: Its GI50 is greater than 100 µM.

Question: What about the TGI [31] of the same compound?
Answer: The TGI was greater than 100 µM.

Question: And the GI50 [32]?
Answer: The GI50 was greater than 100 µM.

Question: What about the TGI [32] of the same compound?
Answer: The TGI was greater than 100 µM.

Question: What about the GI50 [33] of the same compound?
Answer: Its GI50 is greater than 100 µM.

Question: What about the TGI [33] of the same compound?
Answer: Its TGI is greater than 100 µM.

Question: What about the GI50 [34] of the same compound?
Answer: Its GI50 is 7.67 µM.

Question: And the TGI [34]?
Answer: Its TGI is greater than 100 µM.

Question: What about the GI50 [35] of the same compound?
Answer: The GI50 was greater than 100 µM.

Question: And the TGI [35]?
Answer: Its TGI is greater than 100 µM.

Question: What about the GI50 [36] of the same compound?
Answer: The GI50 was greater than 100 µM.

Question: What about the TGI [36] of the same compound?
Answer: The TGI was greater than 100 µM.

Question: What about the GI50 [37] of the same compound?
Answer: Its GI50 is greater than 100 µM.

Question: And the TGI [37]?
Answer: Its TGI is greater than 100 µM.

Question: What about the GI50 [38] of the same compound?
Answer: The GI50 was greater than 100 µM.

Question: And the TGI [38]?
Answer: The TGI was greater than 100 µM.

Question: What about the GI50 [39] of the same compound?
Answer: The GI50 was 84.2 µM.

Question: And the TGI [39]?
Answer: The TGI was greater than 100 µM.

Question: And the GI50 [40]?
Answer: The GI50 was 28.5 µM.

Question: What about the TGI [40] of the same compound?
Answer: Its TGI is 85.2 µM.

Question: What about the GI50 [41] of the same compound?
Answer: The GI50 was greater than 100 µM.

Question: And the TGI [41]?
Answer: Its TGI is greater than 100 µM.

Question: And the GI50 [42]?
Answer: The GI50 was greater than 100 µM.

Question: What about the TGI [42] of the same compound?
Answer: Its TGI is greater than 100 µM.

Question: What about the GI50 [43] of the same compound?
Answer: The GI50 was 28.6 µM.

Question: And the TGI [43]?
Answer: Its TGI is 80.1 µM.

Question: What about the GI50 [44] of the same compound?
Answer: The GI50 was greater than 100 µM.

Question: What about the TGI [44] of the same compound?
Answer: The TGI was greater than 100 µM.

Question: What about the GI50 [45] of the same compound?
Answer: Its GI50 is 81.9 µM.

Question: And the TGI [45]?
Answer: The TGI was greater than 100 µM.

Question: What about the GI50 [46] of the same compound?
Answer: Its GI50 is greater than 100 µM.

Question: And the TGI [46]?
Answer: Its TGI is greater than 100 µM.

Question: What about the GI50 [47] of the same compound?
Answer: Its GI50 is greater than 100 µM.

Question: And the TGI [47]?
Answer: Its TGI is greater than 100 µM.

Question: And the GI50 [48]?
Answer: Its GI50 is greater than 100 µM.

Question: What about the TGI [48] of the same compound?
Answer: The TGI was greater than 100 µM.

Question: What about the GI50 [49] of the same compound?
Answer: Its GI50 is greater than 100 µM.

Question: What about the TGI [49] of the same compound?
Answer: The TGI was greater than 100 µM.

Question: What about the GI50 [50] of the same compound?
Answer: The GI50 was greater than 100 µM.

Question: And the TGI [50]?
Answer: The TGI was greater than 100 µM.

Question: And the GI50 [51]?
Answer: The GI50 was greater than 100 µM.

Question: What about the TGI [51] of the same compound?
Answer: The TGI was greater than 100 µM.

Question: And the GI50 [52]?
Answer: The GI50 was greater than 100 µM.

Question: And the TGI [52]?
Answer: The TGI was greater than 100 µM.

Question: And the GI50 [53]?
Answer: Its GI50 is 38.2 µM.

Question: What about the TGI [53] of the same compound?
Answer: The TGI was greater than 100 µM.

Question: And the GI50 [54]?
Answer: Its GI50 is greater than 100 µM.

Question: And the TGI [54]?
Answer: The TGI was greater than 100 µM.

Question: What about the GI50 [55] of the same compound?
Answer: Its GI50 is greater than 100 µM.

Question: And the TGI [55]?
Answer: The TGI was greater than 100 µM.

Question: What about the GI50 [56] of the same compound?
Answer: Its GI50 is 41.8 µM.

Question: What about the TGI [56] of the same compound?
Answer: Its TGI is greater than 100 µM.
